The results in this text go back to patent US20150175585A1, “FUSED QUINONIC COMPOUNDS” (CENTRO ATLANTICO DEL MEDICAMENTO S.A (CEAMED, S.A.), priority 2012, published 2015).

The test system of one experiment is JAK2. Put plainly: JAK2 phosphorylation western blot assay. Conditions: 10 microM, HEL or K562 cells (table does not say which). The experiment is classed as cell-based, human. A general note: Immunoblotting shows a protein as a band on a membrane.
In a further experiment the test system is HEL cells. The experiment is described as follows: Induction of apoptosis in HEL cells (annexin-V-FITC/propidium iodide flow cytometry). The experiment is classed as cell-based, human. Particulars: 24 or 48 hours. The procedure: FIG. 3. • Analysis of phosphatidylserine externalization in human erythroleukemia cells (HEL) treated with compound 4 or the reported JAK-STAT inhibitor WP 1066. A) At different concentrations for 24 hours. B) Representation of the data obtained after treatment of cells with 5 μM of compound 4 for 48 hours compared to vehicle. (C) Data obtained after treatment of the cells with a concentration of 5 μM of compound 4 for 24 or 48 hours. Data are representative of three experiments. * Signifies a P<0.01 difference from control. ^0 Signifies a P<0.001 difference from control.
Human erythroleukemia (HEL) cells, at a density of 1.5×10^5 cells/ml, were treated with compound 4 at the indicated concentrations for 24 or 48 hours. The cells were incubated with propidium iodide and annexin-V-FITC and the quantity of phosphatidylserine externalized was determined using flow cytometry.
On the technique in general: A flow cytometer gives signals particle by particle.

For the next experiment, the system named is K562 tumors. Put plainly: In vivo efficacy, K562 tumor xenografts in NOD-SCID mice. Conditions: 10 mg/kg i.p. daily except Saturdays and Sundays, 25 day study; P=0.004 day 4, P=0.007 day 25. The source says:
Mice were sacrificed when their tumor diameters reached 2 cm, or when they became moribund.

Structures are written as SMILES.

Regarding `N#Cc1ccc(C2C3=C(CCCC3=O)OC3=C2C(=O)c2ccccc2C3=O)cc1` (stereo not drawn) [Compound 4, 4-(1,6,11-trioxo-2,3,4,6,11,12-hexahydro-1H-benzo[b]xanthen-12-yl)benzonitrile], in the experiment with JAK2, the “Activity (inhibition of JAK2 phosphorylation)” value is on record as “++ (++represents an inhibition at 10 microM > 50%)”. Further, in the experiment on HEL cells, the “apoptosis of HEL cells (phosphatidylserine externalization)” value is “induced, in a dose and time dependent manner, apoptosis”. Also, in the experiment with K562 tumors, the “tumor growth (tumor volume) compared to control group” value is “pronounced, and statistically significant reduction”.
